The conditions of data set [1]: chills, vomiting, sweating, stomach cramps, diarrhea, muscle pain, runny nose and eyes; cited from earlier work.
Data set [2] concerns α1-adrenergic receptors in rat brain membranes. As to the kind of experiment: binding to α1-adrenergic receptors in rat brain membranes.
A short description of data set [3]: effect on blood pressure and bradycardiac activity (peripheral side effects). The data set is classed as in vivo.
Data set [4] relates to α2-adrenergic binding sites in rat brain membranes. Put plainly: binding to α2-adrenergic binding sites in rat brain membranes.
Data set [5] relates to brain adrenergic receptors. As to the kind of experiment: potency at brain adrenergic receptors involved in opioid detoxification. The data set is classed as binding.
The test system of the next data set is pithed rat. As to the kind of experiment: electrical stimulation-evoked heart rate and diastolic pressure increase in the pithed rat. The data set is classed as in vivo.
The next data set relates to pithed normotensive rats. As to the kind of experiment: pressor effects after intravenous administration in pithed normotensive rats. The data set is classed as in vivo, rat.
Data set [6] concerns pentobarbitone anesthetized normotensive rats. As to the kind of experiment: mean arterial pressure and heart rate after intravenous administration in pentobarbitone anesthetized normotensive rats. The data set is classed as in vivo, rat.

With `CC(Oc1c(Cl)cccc1Cl)C1=NCCN1` (racemic) [Lofexidine, 2-[1-(2,6-dichlorophenoxy)ethyl]-4,5-dihydro-1H-Imidazole], in data set [1], the “reducing the symptoms associated with heroin withdrawal” value is given as “effective”.
As for `CC(Oc1c(Cl)cccc1Cl)C1=NCCN1` (single isomer, unassigned; (+)) [(+)-lofexidine, 2-[1-(2,6-dichlorophenoxy)ethyl]-4,5-dihydro-1H-Imidazole], the “potency at α1-adrenergic receptors, times less potent than (−)-lofexidine” value in data set [2] (rat brain membranes, (+) vs (−)) was “four”. In data set [3] (compared to (±)-lofexidine), the “peripheral side effects on blood pressure” value was “considerably lower”. Moreover, in data set [3] (in vivo), the bradycardiac activity entry is “practically no effect” and the “effect on reducing blood pressure” value is recorded as “practically no effect”. Also, the “potency at α2-adrenergic receptors, times less potent than (−)-lofexidine” value in data set [4] ((+) vs (−)) is listed as “nine”.
For `CC(Oc1c(Cl)cccc1Cl)C1=NCCN1` (single isomer, unassigned; (-)) [(−)-lofexidine, 2-[1-(2,6-dichlorophenoxy)ethyl]-4,5-dihydro-1H-Imidazole], the “potency at brain adrenergic receptors compared with (+)-lofexidine” value in data set [5] is reported as “more potent”. Further, the “affinity for α1-adrenergic receptors relative to the (+)-enantiomer (times greater)” value in data set [2] ((−) vs (+)) is “about four”. In addition, in the data set with pithed rat, the “potency in decreasing the increased heart rate evoked by electrical stimulation relative to (+)-lofexidine” value is recorded as “thirty”. Moreover, the “impairment of electrical stimulation-induced increase in diastolic pressure” value in the data set on pithed rat (compared with (+)-lofexidine) is reported as “more effectively unpaired”. In addition, in the data set with pithed normotensive rats, the “doses eliciting pressor effects, times lower than (+)-lofexidine” value stood at 20 times. Also, the “affinity for α2-adrenergic binding sites relative to the (+)-enantiomer (times higher)” value in data set [4] ((−) vs (+)) was “about nine”. For the same compound, in data set [6], the “effectiveness in decreasing heart rate relative to (+)-lofexidine” value is on record as “twenty” and the “effectiveness in decreasing mean arterial pressure relative to (+)-lofexidine” value was “twenty”.

These data come from US20110015246A2, “LOFEXIDINE ENANTIOMERS FOR USE AS A TREATMENT FOR CNS DISEASE AND PATHOLOGIES AND ITS CHIRAL SYNTHESIS” (Agean LLC, priority 2006, published 2011).
